≈ marks a conversion by molar mass, not a printed value. Marks after values point to notes of the source that are not given here.
Columns and labels:
S. mutans = assay: MIC by broth microdilution; type: cell-based, Streptococcus mutans; conditions: S. mutans (viridans), N=22
Method: (§1) Minimal inhibitory concentrations (MICs) of exebacase against staphylococci were determined by broth microdilution (BMD) using a nonstandard antimicrobial susceptibility testing (AST) medium comprised of cation-adjusted Mueller Hinton broth (caMHB) supplemented with horse serum (Sigma Aldrich) and dithiothreitol (DTT; Sigma Aldrich) to final concentrations of 25% and 0.5 mM, respectively. This medium, referred to as caMHB-HSD, is approved for use in exebacase AST by the Clinical and Laboratory Standards Institute (CLSI) (CLSI. 2017, Jan. 16-17. AST Subcommittee Working Group Meetings and Plenary. AST Meeting Files & Resources, clsi.org/education/microbiology/ast/ast-meeting-files-resources/. Additional supplementation with 2.5% lysed red blood cells (Remel™, ThermoFisher) was included for analyses of streptococcal isolates, as recommended by CLSI. See CLSI, 2015. Methods for Dilution Antimicrobial Susceptibility Tests for Bacteria That Grow Aerobically, 10th Edition. Clinical and Laboratory Standards Institute, Wayne, Pa.
(§2) Daptomycin (Sigma Aldrich) and vancomycin hydrochloride (Sigma Aldrich) were tested following the reference BMD method for each. See CLSI. 2015. Methods for Dilution Antimicrobial Susceptibility Tests for Bacteria That Grow Aerobically, 10th Edition. Clinical and Laboratory Standards Institute, Wayne, Pa.

S. aureus (MRSA) = assay: MIC by broth microdilution; type: cell-based, Staphylococcus aureus; conditions: S. aureus (MRSA), N=74
Method: as §1, §2

S. aureus (MSSA) = assay: MIC by broth microdilution; type: cell-based, Staphylococcus aureus; conditions: S. aureus (MSSA), N=73
Method: as §1, §2

S. haemolyticus = assay: MIC by broth microdilution; type: cell-based, Staphylococcus haemolyticus; conditions: S. haemolyticus, N=36
Method: as §1, §2

E. faecalis = assay: MIC by broth microdilution; type: cell-based, Enterococcus faecalis; conditions: E. faecalis (formerly group D), N=18
Method: as §1, §2

S. pneumoniae = assay: MIC by broth microdilution; type: cell-based, Streptococcus pneumoniae; conditions: S. pneumoniae, N=59
Method: as §1, §2

MRSA strain MW2 [1] = assay: Infective endocarditis rabbit model, CF-301 in series with daptomycin (Example 2); type: in vivo, rabbits; conditions: daptomycin alone 4 mg/kg intravenously
Method: The rational for selection of the daptomycin dose is as follows. Daptomycin pilot dose-response experiments were performed over a range from 1 mg/kg to 10 mg/kg, administered intravenously, once daily for 4 days in the infective endocarditis rabbit model described below, which was caused by the MRSA strain, MW2. FIG. 2 depicts data for individual animals, plotted as treatment regimen versus log10 CFU/g tissue (mean±SEM are shown). From these studies, a daptomycin dose-response was defined. […] In the rabbit infective endocarditis model, a daptomycin-alone dose of 4 mg/kg administered intravenously provided about 0.25 to 1.45 log10 reduction in bacterial burden compared to vehicle-treated controls.
A well-described indwelling transcarotid artery-to-left ventricle catheter-induced model of aortic valve infective endocarditis was used in rabbits. See Xiong et al., 2011, AAC, 55:P5325-5330. At 48 hours after catheter placement, infective endocarditis was induced by intravenous inoculums of about 2×10^5 CFU (the induction of ID95 of MRSA strain MW2 in this model). […] Daptomycin administration was continued once a day for 4 days. At 24 hours after the last dose of daptomycin, animals were humanely euthanized and cardiac vegetations, kidneys, and spleens were sterilely removed and quantitatively cultured. Bacterial density for each organ for the different treatment groups were calculated as mean log10 CFU/g of tissue (±95% confidence interval).

S. dysgalactiae = assay: MIC by broth microdilution; type: cell-based, Streptococcus dysgalactiae; conditions: S. dysgalactiae (group G), N=22
Method: as §1, §2

S. agalactiae = assay: MIC by broth microdilution; type: cell-based, Streptococcus agalactiae; conditions: S. agalactiae (group B), N=97
Method: as §1, §2

[2] = system: MRSA strain MW2 (CA-MRSA; USA400); conditions: cited from earlier work
S. sanguinis = assay: MIC by broth microdilution; type: cell-based, Streptococcus sanguinis; conditions: S. sanguinis (viridans), N=15
Method: as §1, §2

S. salivarius = assay: MIC by broth microdilution; type: cell-based, Streptococcus salivarius; conditions: S. salivarius (viridans), N=12
Method: as §1, §2

MRSA strain MW2 [3] = assay: Left-sided catheter-induced IE model due to MRSA, CF-301 dose strategies plus DAP (Example 4); type: in vivo, rabbits
Method: Briefly, female New Zealand White rabbits (Harlan Laboratories; 2.3 to 2.5 kg body weight) underwent transcarotid-transaortic valve catheterization, and IE was induced by IV infection of ˜1-2×10^5 cfu of MW2 at 48 hours (h) after catheterization. […] See also FIG. 4.
On day 5, animals were sacrificed, and target tissues (cardiac vegetations, kidney and spleen) were removed and quantitatively cultured. Tissue MRSA counts are given as the mean log10 CFU/g of tissue±SD).
A two-tailed Student's t test was used to analyze the tissue MRSA counts between different groups. P values <0.05 were considered significant. No adjustment was made for all the P values reported in this study.

S. lugdunensis = assay: MIC by broth microdilution; type: cell-based, Staphylococcus lugdunensis; conditions: S. lugdunensis, N=49
Method: as §1, §2

S. mitis = assay: MIC by broth microdilution; type: cell-based, Streptococcus mitis; conditions: S. mitis (viridans), N=18
Method: as §1, §2

[4] = Staphylococcus aureus, read-out: MIC50
[5] = Staphylococcus aureus, read-out: MIC90

Question: With `CCCCCCCCCC(=O)N[C@@H](Cc1c[nH]c2ccccc12)C(=O)N[C@H](CC(N)=O)C(=O)N[C@@H](CC(=O)O)C(=O)N[C@@H]1C(=O)NCC(=O)N[C@@H](CCCN)C(=O)N[C@@H](CC(=O)O)C(=O)N[C@H](C)C(=O)N[C@@H](CC(=O)O)C(=O)NCC(=O)N[C@H](CO)C(=O)N[C@@H]([C@H](C)CC(=O)O)C(=O)N[C@@H](CC(=O)c2ccccc2N)C(=O)O[C@@H]1C` [DAP, Daptomycin] as the compound, how does the “MIC Range” value (S. mutans) read?
Answer: 0.25 to 8 µg/mL

Question: And the MIC50 (S. mutans; Streptococcus mutans, read-out: MIC50)?
Answer: 0.5 µg/mL (≈ 0.309 µM)

Question: And the MIC90 (S. mutans; Streptococcus mutans, read-out: MIC90)?
Answer: 1 µg/mL (≈ 0.617 µM)

Question: And the “MIC Range” value (S. aureus (MRSA))?
Answer: 0.125 to 1 µg/mL

Question: What about the MIC50 (S. aureus (MRSA); [4]) of the same compound?
Answer: 0.25 µg/mL (≈ 0.154 µM)

Question: What about the MIC90 (S. aureus (MRSA); [5]) of the same compound?
Answer: 0.5 µg/mL (≈ 0.309 µM)

Question: What about the “MIC Range” value (S. aureus (MSSA)) of the same compound?
Answer: 0.125 to 0.5 µg/mL

Question: And the MIC50 (S. aureus (MSSA); [4])?
Answer: 0.25 µg/mL (≈ 0.154 µM)

Question: What about the MIC90 (S. aureus (MSSA); [5]) of the same compound?
Answer: 0.25 µg/mL (≈ 0.154 µM)

Question: And the “MIC Range” value (S. haemolyticus)?
Answer: 0.25 to 2 µg/mL

Question: And the MIC50 (S. haemolyticus; Staphylococcus haemolyticus, read-out: MIC50)?
Answer: 0.5 µg/mL (≈ 0.309 µM)

Question: And the MIC90 (S. haemolyticus; Staphylococcus haemolyticus, read-out: MIC90)?
Answer: 1 µg/mL (≈ 0.617 µM)

Question: And the “MIC Range” value (E. faecalis)?
Answer: 0.25 to 0.5 µg/mL

Question: What about the MIC50 (E. faecalis; Enterococcus faecalis, read-out: MIC50) of the same compound?
Answer: 0.5 µg/mL (≈ 0.309 µM)

Question: And the MIC90 (E. faecalis; Enterococcus faecalis, read-out: MIC90)?
Answer: 0.5 µg/mL (≈ 0.309 µM)

Question: And the “MIC Range” value (S. pneumoniae)?
Answer: 0.06 to 0.25 µg/mL

Question: What about the MIC50 (S. pneumoniae; Streptococcus pneumoniae, read-out: MIC50) of the same compound?
Answer: 0.125 µg/mL (≈ 0.0771 µM)

Question: And the MIC90 (S. pneumoniae; Streptococcus pneumoniae, read-out: MIC90)?
Answer: 0.5 µg/mL (≈ 0.309 µM)

Question: And the “bacterial burden remaining in treated animals” value (MRSA strain MW2 [1])?
Answer: 5-7 log10

Question: And the “reduction in bacterial burden compared to vehicle-treated controls” value (MRSA strain MW2 [1]; once daily for 4 days, pilot dose-response)?
Answer: 0.25 to 1.45 log10

Question: And the “MIC Range” value (S. dysgalactiae)?
Answer: 0.06 to 0.5 µg/mL

Question: What about the MIC50 (S. dysgalactiae; Streptococcus dysgalactiae, read-out: MIC50) of the same compound?
Answer: 0.125 µg/mL (≈ 0.0771 µM)

Question: And the MIC90 (S. dysgalactiae; Streptococcus dysgalactiae, read-out: MIC90)?
Answer: 0.25 µg/mL (≈ 0.154 µM)

Question: And the “MIC Range” value (S. agalactiae)?
Answer: 0.125 to 0.25 µg/mL

Question: What about the MIC50 (S. agalactiae; Streptococcus agalactiae, read-out: MIC50) of the same compound?
Answer: 0.125 µg/mL (≈ 0.0771 µM)

Question: And the MIC90 (S. agalactiae; Streptococcus agalactiae, read-out: MIC90)?
Answer: 0.25 µg/mL (≈ 0.154 µM)

Question: And the MIC [2]?
Answer: 0.5 µg/mL (≈ 0.309 µM)

Question: And the “MIC Range” value (S. sanguinis)?
Answer: 0.06 to 1 µg/mL

Question: And the MIC50 (S. sanguinis; Streptococcus sanguinis, read-out: MIC50)?
Answer: 0.25 µg/mL (≈ 0.154 µM)

Question: And the MIC90 (S. sanguinis; Streptococcus sanguinis, read-out: MIC90)?
Answer: 1 µg/mL (≈ 0.617 µM)

Question: And the “MIC Range” value (S. salivarius)?
Answer: 0.06 to 0.5 µg/mL

Question: What about the MIC50 (S. salivarius; Streptococcus salivarius, read-out: MIC50) of the same compound?
Answer: 0.25 µg/mL (≈ 0.154 µM)

Question: What about the MIC90 (S. salivarius; Streptococcus salivarius, read-out: MIC90) of the same compound?
Answer: 0.5 µg/mL (≈ 0.309 µM)

Question: And the “MRSA density, Mean Log10 CFU/g tissue ± SD, Kidneys” value (MRSA strain MW2 [3]; DAP alone 4 mg/kg QD)?
Answer: 4.62 ± 1.16^a Log10 CFU/g tissue

Question: What about the “MRSA density, Mean Log10 CFU/g tissue ± SD, Spleen” value (MRSA strain MW2 [3]; DAP alone 4 mg/kg QD) of the same compound?
Answer: 4.04 ± 0.87^a Log10 CFU/g tissue

Question: And the “reduction in MRSA densities in all three target tissues vs vehicle controls” value (MRSA strain MW2 [3]; DAP alone 4 mg/kg iv QD x 4 day)?
Answer: 2-3 log10 cfu/g

Question: And the “MIC Range” value (S. lugdunensis)?
Answer: 0.25 to 2 µg/mL

Question: And the MIC50 (S. lugdunensis; Staphylococcus lugdunensis, read-out: MIC50)?
Answer: 0.5 µg/mL (≈ 0.309 µM)

Question: What about the MIC90 (S. lugdunensis; Staphylococcus lugdunensis, read-out: MIC90) of the same compound?
Answer: 1 µg/mL (≈ 0.617 µM)

Question: And the “MIC Range” value (S. mitis)?
Answer: 0.125 to 1 µg/mL

Question: And the MIC50 (S. mitis; Streptococcus mitis, read-out: MIC50)?
Answer: 0.5 µg/mL (≈ 0.309 µM)

Question: And the MIC90 (S. mitis; Streptococcus mitis, read-out: MIC90)?
Answer: 1 µg/mL (≈ 0.617 µM)

From patent publication US20220160842A1, “METHOD OF TREATING INFECTIVE ENDOCARDITIS” (priority 2019, published 2022)
